In US6888003B2, “Method for producing 7-(pyrazole-3-yl) benzoxazoles” (BASF Aktiengesellschaft, priority 2000, dated 2005):

Key:
Experiment in all cases: Greenhouse herbicidal post-emergence test
[1] = test system: AMARE; format: in vivo, velvet leaf; conditions: application rate 31.3 g/ha
Description: (§1) The culture containers used were plastic pots containing loamy sand with approximately 3.0% of humus as the substrate. The seeds of the test plants were sown separately for each species. For the post-emergence treatment, the test plants were first grown to a height of 3 to 15 cm, depending on the plant form, and only then treated with the active compounds which had been suspended or emulsified in water. For this purpose, the test plants were either sown directly and grown in the same containers, or they were first grown separately as seedlings and transplanted into the test containers a few days prior to treatment. The application rate for the post-emergence treatment was 31.3 g of a.s./ha. Depending on the species, the plants were kept at 10-25° C. or 20-35° C. The test period extended over 2 to 4 weeks. During this time, the plants were tended, and their response to the individual treatments was evaluated. The evaluation was carried out using a scale from 0 to 100. 100 means no emergence of the plants, or complete destruction of at least the above-ground parts, and 0 means no damage, or normal course of growth. The plants used in the greenhouse experiments were composed of the following species: [table]

[2] = test system: CHEAL; format: in vivo, lamb's-quarters; conditions: application rate 31.3 g/ha
Description: as §1

[3] = test system: BRAPL; format: in vivo, marmalade grass
Description: as §1, with “The application rate for the post-emergence treatment was 31.3 g of a.s./ha.” left out

[4] = test system: SETFA; format: in vivo, giant foxtail
Description: as §1, with “The application rate for the post-emergence treatment was 31.3 g of a.s./ha.” left out

For Cn1nc(-c2c(F)cc(Cl)c(N)c2Br)c(Cl)c1OC(F)F [IVa.1, 2-bromo-4-fluoro-6-chloro-3-(4-chloro-5-difluoromethoxy-1-methyl-1H-pyrazol-3-yl)aniline], the “herbicidal post-emergence activity against AMARE” value [1] was “very good”, the “herbicidal post-emergence activity against CHEAL” value [2] was “very good” and the “herbicidal post-emergence activity against BRAPL” value ([3]; application rate 15.6 g/ha) was “very good”. For the same compound, the “herbicidal post-emergence activity against BRAPL” value ([3]; application rate 31.3 g/ha) was “very good”, the “herbicidal post-emergence activity against SETFA” value ([4]; application rate 15.6 g/ha) was “very good to good” and the “herbicidal post-emergence activity against SETFA” value ([4]; application rate 31.3 g/ha) was “very good”.
